Series [1] deals with Mus musculus. Nature of the series: Anti-inflammatory activity against LPS-stimulated BALB/c mouse assessed as decrease in IFN-beta level in BALF administered for 3 days by Western blotting analysis. Type of series: functional, organism-based. Conditions: dose 1.25-5 mg/kg, route po, time 3.0 day.
The test system of series [2] is Mus musculus. Nature of the series: Anti-inflammatory activity against LPS-stimulated BALB/c mouse assessed as decrease in TNF-alpha level in BALF administered for 3 days by Western blotting analysis. It counts as functional, organism-based. Conditions: dose 1.25-5 mg/kg, route po, time 3.0 day.
Series [3] concerns RAW264.7. Nature of the series: Anti-inflammatory activity against LPS-induced mouse RAW264.7 cells assessed as decrease in TNF-alpha expression at 1.25 to 5 uM preincubated for 2 hrs followed by LPS addition and measured after 12 hrs by ELISA. Type of series: functional, cell-based. Conditions: dose 1.25-5 µM, time 14.0 hrs.
In series [4] the test system is RAW264.7. In words: Anti-inflammatory activity against LPS-induced mouse RAW264.7 cells assessed as inhibition of p65 nuclear translocation at 5 uM preincubated for 2 hrs followed by LPS addition and measured after 2 hrs by FITC/DAPI staining based laser confocal microscopy analysis. Type of series: functional, cell-based. Conditions: time 4.0 hrs.
Series [5] concerns Mus musculus. Nature of the series: Anti-inflammatory activity against LPS-stimulated BALB/c mouse acute lung injury model assessed as decrease in STING expression at 1.25 to 5 mg/kg, po administered for 3 days by Western blotting analysis. Conditions: dose 1.25-5 mg/kg, time 3.0 day. It counts as functional, organism-based.
The target in series [6] is T1, Stimulator of interferon genes protein (Mus musculus) (UniProt Q3TBT3).
T1 sequence (whole entry): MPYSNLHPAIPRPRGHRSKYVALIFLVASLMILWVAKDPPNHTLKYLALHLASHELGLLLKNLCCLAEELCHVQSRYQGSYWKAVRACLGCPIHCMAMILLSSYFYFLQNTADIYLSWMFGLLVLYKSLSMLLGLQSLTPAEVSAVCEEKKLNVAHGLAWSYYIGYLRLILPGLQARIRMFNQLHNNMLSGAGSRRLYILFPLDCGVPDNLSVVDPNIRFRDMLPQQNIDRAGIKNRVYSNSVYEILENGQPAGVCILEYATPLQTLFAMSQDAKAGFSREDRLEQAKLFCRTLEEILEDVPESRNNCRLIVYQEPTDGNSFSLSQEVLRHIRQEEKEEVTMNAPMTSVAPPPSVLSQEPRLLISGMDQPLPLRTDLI
In words: Binding affinity to STING in mouse RAW264.7 cells assessed as protein stabilization at 49 degreeC incubated for 12 hrs by thermal shift assay. It counts as cell-based. Conditions: dose 0.4-40 µM.

Series [7] has as its system RAW264.7. Nature of the series: Anti-inflammatory activity against LPS-induced mouse RAW264.7 cells assessed as decrease in IL-6 expression at 1.25 to 5 uM preincubated for 2 hrs followed by LPS addition and measured after 12 hrs by ELISA. It counts as functional, cell-based. Conditions: dose 1.25-5 µM, time 14.0 hrs.
The subject of series [8] is Mus musculus. In words: Anti-inflammatory activity against LPS-stimulated BALB/c mouse acute lung injury model assessed as decrease in pulmonary edema in lung tissue at 1.25 to 5 mg/kg, po administered for 3 days by hematoxylin and eosin staining based analysis. Conditions: dose 1.25-5 mg/kg, time 3.0 day. It counts as functional, organism-based.
The test system of series [9] is Mus musculus. In words: Anti-inflammatory activity against LPS-stimulated BALB/c mouse acute lung injury model assessed as decrease in TBK1 phosphorylation at 1.25 to 5 mg/kg, po administered for 3 days by Western blotting analysis. It counts as functional, organism-based. Conditions: dose 1.25-5 mg/kg, time 3.0 day.
Series [10] concerns Mus musculus. Nature of the series: Anti-inflammatory activity against LPS-stimulated BALB/c mouse acute lung injury model assessed as decrease in IkappaB phosphorylation at 1.25 to 5 mg/kg, po administered for 3 days by Western blotting analysis. Type of series: functional, organism-based. Conditions: dose 1.25-5 mg/kg, time 3.0 day.
The test system of series [11] is Mus musculus. In words: Anti-inflammatory activity against LPS-stimulated BALB/c mouse acute lung injury model assessed as decrease in p65 phosphorylation at 1.25 to 5 mg/kg, po administered for 3 days by Western blotting analysis. It counts as functional, organism-based. Conditions: dose 1.25-5 mg/kg, time 3.0 day.
The subject of series [12] is RAW264.7. In words: Anti-inflammatory activity against LPS-induced mouse RAW264.7 cells assessed as inhibition of IRF3 nuclear translocation at 5 uM preincubated for 2 hrs followed by LPS addition and measured after 2 hrs by FITC/DAPI staining based laser confocal microscopy analysis. It counts as functional, cell-based. Conditions: time 4.0 hrs.
Series [13] has as its system Mus musculus. In words: Anti-inflammatory activity against LPS-stimulated BALB/c mouse acute lung injury model assessed as decrease in IRF3 phosphorylation at 1.25 to 5 mg/kg, po administered for 3 days by Western blotting analysis. It counts as functional, organism-based. Conditions: dose 1.25-5 mg/kg, time 3.0 day.
Series [14] deals with RAW264.7. In words: Anti-inflammatory activity against LPS-induced mouse RAW264.7 cells assessed as inhibition of NO production at 10 uM preincubated for 2 hrs followed by LPS addition and measured after 24 hrs by Griess reagent-based microplate reader analysis relative to control. Type of series: functional. Set-up: scale not given: the % may be the effect or the level left. Conditions: time 26 hrs.

Series [15] relates to RAW264.7. Nature of the series: Anti-inflammatory activity against LPS-induced mouse RAW264.7 cells assessed as decrease in TBK1 phosphorylation at 1.25 to 5 uM by Western blotting analysis. It counts as functional, cell-based. Conditions: dose 1.25-5 µM.
For series [16], the system named is RAW264.7. Nature of the series: Anti-inflammatory activity against LPS-induced mouse RAW264.7 cells assessed as decrease in IFN-beta expression at 1.25 to 5 uM preincubated for 2 hrs followed by LPS addition and measured after 12 hrs by ELISA. It counts as functional, cell-based. Conditions: dose 1.25-5 µM, time 14.0 hrs.
Series [17] concerns RAW264.7. In words: Anti-inflammatory activity against LPS-induced mouse RAW264.7 cells assessed as decrease in STING protein level at 1.25 to 5 uM by Western blotting analysis. Conditions: dose 1.25-5 µM. It counts as functional, cell-based.
Series [18] has as its system RAW264.7. In words: Anti-inflammatory activity against LPS-induced mouse RAW264.7 cells assessed as inhibition of NO production at 20 uM preincubated for 2 hrs followed by LPS addition and measured after 24 hrs by Griess reagent-based microplate reader analysis relative to control. Conditions: time 26 hrs. Further details: scale not given: the % may be the effect or the level left. It counts as functional.

The test system of series [19] is RAW264.7. In words: Anti-inflammatory activity against LPS-induced mouse RAW264.7 cells assessed as decrease in IkappaB phosphorylation at 1.25 to 5 uM by Western blotting analysis. Type of series: functional, cell-based. Conditions: dose 1.25-5 µM.
In series [20] the target is T1, Stimulator of interferon genes protein (Mus musculus). In words: Binding affinity to STING in mouse RAW264.7 cells assessed as reduction in protein degradation at 40 uM at 40 to 61 degreeC incubated for 12 hrs by thermal shift assay. It counts as cell-based.
In series [21] the test system is RAW264.7. Nature of the series: Anti-inflammatory activity against LPS-induced mouse RAW264.7 cells assessed as decrease in p65 phosphorylation at 1.25 to 5 uM by Western blotting analysis. It counts as functional, cell-based. Conditions: dose 1.25-5 µM.
Series [22] relates to Mus musculus. In words: Anti-inflammatory activity against LPS-stimulated BALB/c mouse acute lung injury model assessed as decrease in MDA level in lung tissue at 1.25 to 5 mg/kg, po administered for 3 days by colorimetric method. Type of series: functional, organism-based. Conditions: dose 1.25-5 mg/kg, time 3.0 day.
The target of series [23] is T1, Stimulator of interferon genes protein (Mus musculus). In words: Binding affinity to STING in mouse RAW264.7 cells assessed as inhibition of protein degradation at 4 to 40 uM at 49 degreeC incubated for 12 hrs by thermal shift assay. Type of series: cell-based. Conditions: dose 4-40 µM.
The subject of series [24] is Mus musculus. In words: Anti-inflammatory activity against LPS-stimulated BALB/c mouse acute lung injury model assessed as increase in SOD level in lung tissue at 1.25 to 5 mg/kg, po administered for 3 days by colorimetric method. Type of series: functional, organism-based. Conditions: dose 1.25-5 mg/kg, time 3.0 day.
Series [25] is described as follows: Cytotoxicity against mouse RAW264.7 cells assessed as cell viability at 40 uM incubated for 24 hrs by MTT assay relative to control. Type of series: toxicity, cell-based. Conditions: read-out: Activity.
The subject of series [26] is Mus musculus. In words: Anti-inflammatory activity against LPS-stimulated BALB/c mouse assessed as decrease in IL-6 level in BALF administered for 3 days by Western blotting analysis. Type of series: functional, organism-based. Conditions: dose 1.25-5 mg/kg, route po, time 3.0 day.
Series [27] relates to RAW264.7. Nature of the series: Anti-inflammatory activity against LPS-induced mouse RAW264.7 cells assessed as decrease in IRF3 phosphorylation at 1.25 to 5 uM by Western blotting analysis. Type of series: functional, cell-based. Conditions: dose 1.25-5 µM.
Series [28] deals with Mus musculus. Nature of the series: Antiinflammatory activity against TPA-induced mouse ear edema model assessed as reduction in ear edema at 40 mg/kg, po administered for 7 consecutive days. Type of series: functional. Further details: scale not given: the % may be the effect or the level left. Conditions: time 7 day.

Active and inactive are the calls of the source. No cut-off for these calls is given here.

Turning to `CC1(C)CC[C@]2(C(=O)OCc3ccccc3)CC[C@]3(C)C(=CC[C@@H]4[C@@]5(C)CCC(=O)[C@@](C)(COC(=O)CCCNC(=O)CCCC[C@@H]6CCSS6)[C@@H]5CC[C@]43C)[C@@H]2C1`, the Activity entry in the series on Mus musculus [1] is “Dose-Dependent Effect”; with Mus musculus [2], “Dose-Dependent Effect”; in series [6] it was “Dose-Dependent Effect”; in the series with RAW264.7 [14], 69.78%; in the series on RAW264.7 [18], 81.7%; in the series with Mus musculus [26], “Dose-Dependent Effect”. Also, the result in the series on RAW264.7 [3], in the series with RAW264.7 [4], in the series with Mus musculus [5], in the series with RAW264.7 [7], in the series on Mus musculus [8] and in the series on Mus musculus [9] was Active. Further, the outcome in the series on Mus musculus [10], in the series with Mus musculus [11], in the series on RAW264.7 [12], with Mus musculus [13], in the series on RAW264.7 [15] and with RAW264.7 [16] was Active. The result (with RAW264.7 [17]; in the series on RAW264.7 [19]; in series [20]; in the series on RAW264.7 [21]; in the series on Mus musculus [22]; in series [23]) was Active. Besides, the result in the series with Mus musculus [24] and in the series with RAW264.7 [27] was Active. In [25], the viability at 24 h, 40 µM turned out to be 100%.

On to `CC1(C)C(=O)/C(=C\c2cnccn2)C[C@]2(C)[C@H]3CC=C4[C@@H]5C[C@@](C)(C(=O)O)CC[C@]5(C)CC[C@@]4(C)[C@]3(C)CC[C@@H]12`, for which the Activity in the series on Mus musculus [28] is recorded as 59.69%.

The values are drawn from ChEMBL document CHEMBL5537127, “Design and synthesis of novel hederagonic acid analogs as potent anti-inflammatory compounds capable of protecting against LPS-induced acute lung injury” (Eur J Med Chem, 2024).
